Drawing on patent US7803801B2, “Aminopyridine compounds having Syk inhibitory activity” (Japan Tobacco, Inc., priority 2005, dated 2010), this text covers IC50 for 19 molecules.

Some results are limits rather than exact numbers.

Experiment [1] concerns the target GST-Syk Full Protein (human) (Homo sapiens, UniProt P43405). Nature of the experiment: Syk kinase inhibition test (HTRF method). It counts as biochemical. The following applies: HTRF, 100 μM ATP, 30 min room temperature, average; read-out: sykHTRF ave IC50. The method in brief: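 HTRF read-out: after EDTA termination and 1 h with XL665-streptavidin and Eu-anti-phosphotyrosine, the 665/620 nm ratio was measured. The reaction ran 30 min at 20–25 °C with final 6.4 nM human GST-Syk, 250 nM biotinylated peptide, 100 μM ATP, pH 7.0 HEPES buffer, 2% DMSO.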
In general terms: Time-resolved FRET reads energy transfer from a long-lived donor to a nearby acceptor.

The test system of experiment [2] is cultured human mast cells. Nature of the experiment: Degranulation inhibition test using cultured human mast cells (IgE cross-linking, β-Hexosaminidase release). It counts as cell-based. The following applies: Mast cell; cultured human mast cells, anti-hIgE stimulation, β-Hexosaminidase index, average; read-out: human degranulation ave. IC50. The procedure, abridged: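 Degranulation was triggered by anti-hIgE (10 μg/mL final, 30 min, 37 °C) after a 10-min compound pretreatment (DMSO 0.1%) of cord-blood CD34+-derived mast cells primed 5 days with IL-4 and IgE. β-Hexosaminidase in supernatant was measured with p-nitrophenyl-GlcNAc substrate (A405), expressed against water-lysed total; IC50 (M).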

A word on the IC50: it is the concentration at which inhibition is half-maximal.

On to `CC(=O)N[C@@H](C)c1ncc(-c2cccc(Nc3cc(-c4ccncc4)ccn3)n2)s1` [Compound A-79, N—((S)-1-{5-[6-([4,4′]bipyridinyl-2-ylamino)pyridin-2-yl]thiazol-2-yl}ethyl)acetamide], for which the IC50 in experiment [1] was under 100 nM; in experiment [2], 100 to 1000 nM.
The corresponding values for `CC(=O)N[C@@H](C)c1ncc(-c2cccc(Nc3cc(OCc4ccccc4)ccn3)n2)s1` [Compound A-80] are 100 to 1000 nM and 100 to 1000 nM.
The corresponding values for `CC(=O)N[C@@H](C)c1ncc(-c2cccc(Nc3cc(Cl)ccn3)n2)s1` [Compound A-81, N—((S)-1-{5-[6-(4-chloropyridin-2-ylamino)pyridin-2-yl]thiazol-2-yl}ethyl)acetamide] are under 100 nM and 100 to 1000 nM.
In the same order, the values of `Cc1ccnc(Nc2cccc(-c3cnc([C@@H](O)C(C)C)s3)n2)c1` [Compound A-82, (S)-2-methyl-1-{5-[6-(4-methylpyridin-2-ylamino)pyridin-2-yl]thiazol-2-yl}propan-1-ol] are under 100 nM and 100 to 1000 nM.
Take `Cc1ccnc(Nc2cccc(-c3cnc(C(=O)C(C)C)s3)n2)c1` [Compound A-83]: the results for the IC50 in experiment [1] and in experiment [2] were 100 to 1000 nM and over 1000 nM, respectively.
The corresponding values for `Cc1ccnc(Nc2cccc(-c3cnc([C@@H](N)Cc4ccc(OCc5ccccc5)cc4)s3)n2)c1` [Compound A-86] are 100 to 1000 nM and over 1000 nM.
The corresponding values for `CC(=O)N1C[C@H](OCc2ccccc2)C[C@H]1c1ncc(-c2cccc(Nc3cc(C)ccn3)n2)s1` [Compound A-90] are 100 to 1000 nM and over 1000 nM.
The corresponding values for `CC(=O)N[C@@H](C)c1ncc(-c2cccc(Nc3cc4ccccc4cn3)n2)s1` [Compound A-91, N—((S)-1-{5-[6-(isoquinolin-3-ylamino)pyridin-2-yl]thiazol-2-yl}ethyl)acetamide] are under 100 nM and 100 to 1000 nM.
For `Cc1ccnc(Nc2cccc(-c3cnc(C4CCNCC4)s3)n2)c1` [Compound A-92, (4-methylpyridin-2-yl)-[6-(2-piperidin-4-ylthiazol-5-yl)pyridin-2-yl]amine], the figures for the IC50 in experiment [1] and in experiment [2] were under 100 nM and 100 to 1000 nM, respectively.
In the same order, the values of `CC(=O)O[C@@H]1C[C@@H](c2ncc(-c3cccc(Nc4cc(C)ccn4)n3)s2)N(C(C)=O)C1` [Compound A-93] are 100 to 1000 nM and over 1000 nM.
The corresponding values for `CC(=O)N1CCC(c2ncc(-c3cccc(Nc4cc(C)ccn4)n3)s2)CC1` [Compound A-94] are 100 to 1000 nM and 100 to 1000 nM.
The corresponding values for `CC(=O)N1C[C@H](O)C[C@H]1c1ncc(-c2cccc(Nc3cc(C)ccn3)n2)s1` [Compound A-95] are 100 to 1000 nM and over 1000 nM.
`Cc1ccnc(Nc2cccc(-c3cnc([C@@H](N)CCC(=O)OCc4ccccc4)s3)n2)c1` [Compound A-97]: the IC50 in experiment [1] and in experiment [2] was 100 to 1000 nM each time.
On to `CC(=O)N[C@@H](CCC(=O)OCc1ccccc1)c1ncc(-c2cccc(Nc3cc(C)ccn3)n2)s1` [Compound A-98], for which the IC50 in experiment [1] was 100 to 1000 nM; in experiment [2], over 1000 nM.
The corresponding values for `CC(=O)N[C@@H](Cc1ccc(O)cc1)c1ncc(-c2cccc(Nc3cc(C)ccn3)n2)s1` [Compound A-99] are 100 to 1000 nM and 100 to 1000 nM.
The corresponding values for `CCOC(=O)c1nc([C@H](C)N)sc1-c1cccc(Nc2cc(C)ccn2)n1` [Compound A-101] are over 1000 nM and over 1000 nM.
The corresponding values for `CCOC(=O)c1nc([C@H](C)NC(C)=O)sc1-c1cccc(Nc2cc(C)ccn2)n1` [Compound A-102] are over 1000 nM and over 1000 nM.
On to `CC(=O)N[C@@H](CCC(=O)O)c1ncc(-c2cccc(Nc3cc(C)ccn3)n2)s1` [Compound A-103], for which the IC50 in experiment [1] is 100 to 1000 nM; in experiment [2], over 1000 nM.
In the case of `Cc1ccnc(Nc2cccc(-c3sc([C@H](C)N)nc3C)n2)c1` [Compound A-104], the IC50 in experiment [1] is 100 to 1000 nM; in experiment [2] it was over 1000 nM.
